Tests used:
[1] = test system: larvae of the mustard beetle (Phaedon cochleariae); test: Phaedon cochleariae spray test (PHAECO); assay type: in vivo; conditions: Chinese cabbage leaf discs, after 7 days
In short: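 Kill of mustard beetle larvae is read as % mortality 7 days after spraying. Spray liquid: active compound in acetone plus dimethylformamide, brought up with water holding 1000 ppm alkylaryl polyglycol ether emulsifier and diluted further in emulsifier-water.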

[2] = test system: green peach aphid (Myzus persicae); test: Myzus persicae spray test (MYZUPE); assay type: in vivo; conditions: Chinese cabbage leaf discs, after 6 days
Description: G. Myzus persicae-spray Test (MYZUPE)
Solvents: 78 parts by weight of acetone
• 1.5 parts by weight of dimethylformamide Emulsifier: alkylaryl polyglycol ether
To produce a suitable preparation of active compound, 1 part by weight of active compound is dissolved using the stated parts by weight of solvent and made up with water comprising an emulsifier concentration of 1000 ppm until the desired concentration is reached. To produce further test concentrations, the preparation is diluted with emulsifier-containing water.
Discs of Chinese cabbage leaves (Brassica pekinensis) infested by all stages of the green peach aphid (Myzus persicae) are sprayed with an active compound preparation of the desired concentration.
After 6 days, the efficacy in % is determined 100% here means that all of the aphids have been killed; 0% means that no aphids have been killed.

[3] = test system: caterpillars of the armyworm (Spodoptera frugiperda); test: Spodoptera frugiperda spray test (SPODFR); assay type: in vivo; conditions: maize leaf discs, after 7 days
In short: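 Percent kill read at day 7 on caterpillar-infested maize leaf discs. Discs were first sprayed with aqueous emulsifier-containing (1000 ppm) preparations made from acetone/dimethylformamide solutions, and dried. Scale: 0% none dead, 100% all dead.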

[4] = test system: greenhouse red spider mite (Tetranychus urticae); test: Tetranychus urticae spray test, OP-resistant (TETRUR); assay type: in vivo; conditions: bean leaf discs, after 6 days
In short: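 Percent kill, scored 6 days post-spray (0% = none dead, 100% = all dead), on Phaseolus vulgaris leaf discs infested with every life stage of the OP-resistant spider mite. Compound dissolved in acetone plus DMF, diluted to test concentration with emulsifier-containing water (1000 ppm).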

[5] = logP determination by HPLC on a reversed-phase column (C18), EEC Directive 79/831 Annex V.A8; assay type: physicochemical; conditions: HPLC on reversed-phase column (C18), acetonitrile/water with formic acid, EEC Directive 79/831 Annex V.A8
In short: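 Per EEC 79/831 Annex V.A8, values derive from HPLC retention at 2.0 ml/min and 55° C on a 50*4.6 C18 column. The 10→95% acetonitrile gradient (0.1%/0.09% formic acid) lasted 4.25 min plus a 1.25 min hold; mass detection was by MSD.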

[6] = test system: L1 larvae of the Australian sheep blowfly (Lucilia cuprina); test: Lucilia cuprina test (LUCICU); assay type: in vivo; conditions: application rate 100 ppm; after 2 days
In short: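 Percent mortality read at 2 days; 100% = all larvae killed, 0% = none. Test compound, predissolved in DMSO and water-diluted to the wanted level, was mixed into minced horsemeat holding roughly 20 first-instar larvae.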

[7] = test system: adult houseflies (Musca domestica); test: Musca domestica test (MUSCDO); assay type: in vivo; conditions: application rate 100 ppm; after 2 days
Description: F. Musca domestica Test (MUSCDO)
Solvent: dimethyl sulphoxide
To produce a suitable preparation of active compound, 10 mg of active compound are mixed with 0.5 ml of dimethyl sulphoxide, and the concentrate is diluted with water to the desired concentration.
Vessels containing a sponge treated with sugar solution and the active compound preparation of the desired concentration are populated with 10 adult houseflies (Musca domestica).
After 2 days, the kill in % is determined. 100% means that all of the flies have been killed; 0% means that none of the flies have been killed.

[8] = test system: adult cat fleas (Ctenocephalides felis); test: Ctenocephalides felis oral test (CTECFE); assay type: in vivo; conditions: application rate 100 ppm in citrated cattle blood; after 2 days
In short: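 Mortality read at 2 days as percent of fleas killed. Compound predissolved in DMSO, diluted into citrated cattle blood and offered to roughly 20 unfed adult C. felis via parafilm membrane feeder.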

[9] = test system: adult dog ticks (Rhipicephalus sanguineus); test: Rhipicephalus sanguineus in vitro contact test with adult brown dog ticks (T2); conditions: after 48 h
In short: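 Acetone solutions coated onto test tube walls and floor, giving 5 μg/cm^2 at 900 ppm. Five to ten adult ticks held per tube in the dark at room temperature for 48 h, then heated at 45-50° C for up to 5 min; efficacy is the percentage of dead or moribund ticks unable to climb away.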

[10] = test system: engorged adult female cattle ticks (Boophilus microplus); test: Boophilus microplus injection test (BOOPMI Inj); assay type: in vivo; conditions: application rate 20 μg/animal; injection into abdomen; assessed after 7 days
In short: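 Efficacy is read at 7 days as fertile egg laying (100% = no fertile eggs laid; 0% = all eggs fertile), with eggs of unclear fertility stored until larvae hatch at about 42 days. Five engorged adult females per dose each receive an abdominal injection of 1 μl compound dissolved in DMSO.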

In the case of COC1(NC(=O)c2cc(-c3cnn(-c4c(C(F)(F)F)c(C(F)(F)C(F)(F)F)nn4C)c3)ccc2Cl)CC1 [Ic-187], the efficacy in % ([1]; application rate 500 g/ha) was 100%, the efficacy in % ([2]; application rate 500 g/ha) was 90% and the efficacy in % ([3]; application rate 500 g/ha) was 100%. The efficacy in % ([4]; application rate 500 g/ha) was 100% and the logP [5] was 3.83.

With Cn1nc(C(F)(F)C(F)(F)F)c(C(F)(F)F)c1-n1cc(-c2cc(C(=O)NC3(C#N)CC3)ncc2F)cn1 [Ic-73] the efficacy in % ([1]; application rate 500 g/ha) was 100%, the “efficacy (kill in %)” value [6] was 100% and the “efficacy (kill in %)” value [7] was 90%. The “efficacy (kill in %)” value [8] was 100%, the “efficacy (dead or moribund ticks)” value ([9]; application rate 1 μg/cm^2) was 80% and the “efficacy (dead or moribund ticks)” value ([9]; application rate 5 μg/cm^2) was 80%. For the same compound, the efficacy in % ([3]; application rate 100 g/ha) was 100%, the efficacy in % ([3]; application rate 500 g/ha) was 100% and the efficacy in % ([4]; application rate 100 g/ha) was 100%. For the same compound, the “efficacy (laying of fertile eggs)” value [10] was 100%.

Work on CC1CC1NC(=O)c1cc(-c2cnn(-c3c(C(F)(F)F)c(C(F)(F)C(F)(F)F)nn3C)c2)ccc1Cl (stereo not shown) [Ic-79] yielded an efficacy in % ([1]; application rate 100 g/ha) of 100%, an efficacy in % ([2]; application rate 100 g/ha) of 90% and an efficacy in % ([3]; application rate 100 g/ha) of 100%. It also gave an efficacy in % ([4]; application rate 100 g/ha) of 100% and a logP [5] of 4.15.

In the case of Cn1nc(C(F)(F)C(F)(F)F)c(C(F)(F)F)c1-n1cc(-c2ccc(Cl)c(C(=O)NC3C[S+]([O-])C3)c2)cn1 (stereo not shown) [Ic-116], the efficacy in % ([1]; application rate 500 g/ha) was 100%, the efficacy in % ([2]; application rate 500 g/ha) was 90% and the efficacy in % ([3]; application rate 500 g/ha) was 100%. For the same compound, the efficacy in % ([4]; application rate 500 g/ha) was 100% and the logP [5] was 3.03.

In the case of Cn1nc(C(F)(F)F)c(CF)c1-n1cc(-c2ccc(Cl)c(C(=O)NC3(C#N)CC3)c2)cn1 [Ic-115], the efficacy in % ([1]; application rate 100 g/ha) was 100%, the efficacy in % ([2]; application rate 100 g/ha) was 90% and the efficacy in % ([3]; application rate 100 g/ha) was 100%. For the same compound, the efficacy in % ([4]; application rate 100 g/ha) was 100% and the logP [5] was 2.89.

In the case of Cn1nc(C(F)(F)F)c([S+](C)[O-])c1-n1cc(-c2ccc(Cl)c(C(=O)NC3(C#N)CC3)c2)cn1 (stereo not shown) [Ic-134], the efficacy in % ([1]; application rate 100 g/ha) was 100%, the efficacy in % ([2]; application rate 100 g/ha) was 100% and the efficacy in % ([4]; application rate 100 g/ha) was 100%. The logP [5] was 2.16.

Cn1nc(C(F)(F)C(F)(F)F)c(C(F)(F)F)c1-n1cc(-c2ccc(Cl)c(C(=O)NC3CS(=O)(=O)C3)c2)cn1 [Ic-117] gave an efficacy in % ([1]; application rate 500 g/ha) of 100%, an efficacy in % ([2]; application rate 500 g/ha) of 90% and an efficacy in % ([3]; application rate 500 g/ha) of 100%. It also gave an efficacy in % ([4]; application rate 500 g/ha) of 100% and a logP [5] of 3.37.

For CC(CC1CC1)NC(=O)c1cc(-c2cnn(-c3c(C(F)(F)F)c(C(F)(F)C(F)(F)F)nn3C)c2)ccc1Cl (stereo not shown) [Ic-161], the efficacy in % ([1]; application rate 500 g/ha) was 100%, the “efficacy (kill in %)” value [6] was 100% and the “efficacy (kill in %)” value [7] was 80%. The “efficacy (kill in %)” value [8] was 100%, the “efficacy (dead or moribund ticks)” value ([9]; application rate 1 μg/cm^2) was 80% and the “efficacy (dead or moribund ticks)” value ([9]; application rate 5 μg/cm^2) was 100%. The efficacy in % ([3]; application rate 500 g/ha) was 100%, the efficacy in % ([4]; application rate 500 g/ha) was 100% and the “efficacy (laying of fertile eggs)” value [10] was 100%.

In the case of Cn1nc(C(F)(F)F)c(C(F)F)c1-n1cc(-c2ccc(Cl)c(C(=O)NC3CC3)c2)cn1 [Ic-133], the efficacy in % ([1]; application rate 100 g/ha) was 100%, the efficacy in % ([2]; application rate 100 g/ha) was 100% and the efficacy in % ([3]; application rate 100 g/ha) was 100%. The efficacy in % ([4]; application rate 100 g/ha) was 100% and the logP [5] was 3.01.

CCN(CC)S(=O)(=O)c1ccc(-c2cnn(-c3c(C(F)(F)F)c(C(F)(F)C(F)(F)F)nn3C)c2)cc1C(=O)NC1CC1 [Ic-185] gave an efficacy in % ([1]; application rate 100 g/ha) of 100%, an efficacy in % ([2]; application rate 100 g/ha) of 100% and an efficacy in % ([3]; application rate 100 g/ha) of 100%. It also gave an efficacy in % ([4]; application rate 100 g/ha) of 100% and a logP [5] of 3.99.

Source: patent US9487489B2, “Halogen-substituted pyrazole derivatives as pest-control agents” (BAYER CROPSCIENCE AKTIENGESELLSCHAFT, priority 2013, dated 2016)
